Experiments:
[1] = mouse, in vivo
Protocol: Mice. 6-8 week old Balb/c nude mice (CAnN.Cg-Foxn1nu/Crl) were purchased from Charles River Laboratories. Mice were injected with 10^6 IDH WT or mutant primary glioma cells sub-cutaneously in the right flank. When the tumors were about 25 mm^2, ATRA treatment was started. 10 mg/Kg ATRA was administered to mice intra-peritoneally (i.p.) every alternate day until termination of the experiment. DMSO-treated mice were used as controls. The mice were monitored for signs of drug toxicity such as weight-loss, lethargy, skin lesions and diarrhea. The tumors were measured every 3 days, and the mice were sacrificed when the tumors were about 400 mm^2. For NK depletion experiments, 6-week old B6 nude mice (B6.Cg-Foxn1nu/J) were purchased from The Jackson Laboratory. NK depletion was performed by injecting mice with 200 μg of anti-NK1.1 antibody (Biolegend) i.p. on the day ATRA treatment was started. Mice injected with 200 μg of an isotype antibody were used as controls. Mice were bled and evaluated for circulating NKs by flow cytometry.
Retinoic acid has been used as a chemotherapeutic agent in a wide variety of cancers, in pre-clinical as well as clinical applications. 13-cis-RA is the most common form of RA used in clinics, and is effective in a variety of neoplasms. Therefore, the efficacy of 13-cis RA was compared with ATRA and Bexarotene (a synthetic retinoic acid analogue) in IDH mutant gliomas.

[2] = tested on: RBP1-transduced IDH mutant cells; assay: RBP1 overexpression with retinol: NK cytotoxicity and gene expression; type: cell-based, human
Protocol: For RBP1 overexpression studies, IDH mutant glioma cells were transduced with RBP1 expressing lentiviral vectors (Origene Inc) for 3 hours. The cells were maintained in CM containing 10 μg/ml Puromycin to select for lentivirus-transduced cells. Cells transduced with a mock lentiviral vector were used as controls.
NK cytotoxicity assay. The flow cytometric CFSE/7-AAD cytotoxicity assay was performed as previously described with slight modifications. Astrocytes or Glioma cells (5×10^5) were labeled with 500 nM CFSE (from a 1 mM stock solution in dimethyl sulfoxide [Sigma] stored at −20° C.) in PBS for 15 min at 37° C. The cells were then washed twice in complete medium and used immediately for the cytotoxicity assay. The CFSE-labeled target cells (25,000 cells) were used at E (effector):T (target) ratios of 1:10. After 6 h incubation, the cells were stained with 0.25 μg/ml of 7-AAD and analyzed by flow cytometry.
Quantitative Real time RT-PCR. 5×10^5 IDH mutant and WT astrocytes, as well as patient glioma cells were lyzed in Trizol and RNA was extracted from the cells using the Chloroform extraction method. cDNA was transcribed from the RNA using iScript cDNA synthesis kit (BioRad). Real-time PCR was performed on an CFX96 Touch™ Real-Time PCR Detection System (Bio-Rad) equipped with a 96-well reaction plate. Briefly, 2 μL cDNA was added to 5 μL of the 2×SYBR Green PCR mastermix (Thermo Scientific), 800 nM of each primer, and water was added to 10 μL. The thermal denaturation protocol was run at the end of the PCR to determine the number of products that were present in the reaction. Reactions were typically run in triplicates. The cycle number at which the reaction crossed an arbitrarily-placed threshold (CT) was determined for each gene and the relative amount of each gene to 18 S rRNA was described using the equation 2^−ΔCT where ΔCT=(CTtargetRNA−CT18S rRNA).
RBP1 overexpression reverses immune evasion in IDH mutant gliomas. […] Cells were analyzed for NK cytotoxicity and gene expression of RA pathway genes. […]

[3] = retinol added to RBP1-transduced IDH mutant cells, to wild type expression levels

Row | Structure (SMILES) | toxicity in treated mice (weight loss and wasting) [1] | recognition and killing by NK cells ([2]; 10 μM retinol in medium of RBP1-transduced IDH mutant cells) | expression of NKG2D ligands (ULBP1, ULBP3) [2, 3] | expression of RA pathway genes [2, 3]
1 | CC1=C(/C=C/C(C)=C/C=C/C(C)=C\C(=O)O)C(C)(C)CCC1 [13-cis RA, 13-cis retinoic acid] | Higher levels of toxicity | – | – | –
2 | C=C(c1ccc(C(=O)O)cc1)c1cc2c(cc1C)C(C)(C)CCC2(C)C [Bexarotene] | Higher levels of toxicity | – | – | –
3 | CC1=C(/C=C/C(C)=C/C=C/C(C)=C/CO)C(C)(C)CCC1 [retinol] | – | significantly increased recognition and killing by NK cells | restored expression | restored expression

Reference: patent US10821091B2, “Retinoid compositions and methods of increasing immune cell-mediated killing of IDH mutant cancer cells” (UNIVERSITY OF PITTSBURGH—OF THE COMMONWEALTH SYSTEM OF …, priority 2017, dated 2020)
